The record followed here is ChEMBL document CHEMBL5055668 (J Med Chem, 2021).

Data set [1] relates to BMDM. The data set can be described thus: Induction of conversion of M2-macrophages to the M1 phenotype in CM of MC38 cells treated C57BL/6 mouse BMDM cells assessed as down regulation of Chil3 mRNA expression at 30 to 100 nM preincubated with culture medium of MC38 cells for 24 hrs followed by compound addition and measured after 24 hrs by qPCR analysis. The data set is classed as functional, cell-based. The conditions noted are these: dose 30-100 nM.

Data set [2] has as its system MC-38. As to the kind of experiment: Antitumor activity against mouse MC38 cells allografted in C57BL6 mouse assessed as decrease in chil3 mRNA expression at 10 to 20 mg/kg, po administered daily for 2 weeks by qPCR analysis. The data set is classed as functional, organism-based. The conditions noted are these: dose 10-20 mg/kg.
Data set [3] has as its system THP-1. The data set can be described thus: Induction of conversion of M2-macrophages to the M1 phenotype in CM of HCT116 cells treated […]-differentiated human THP-1 cells assessed as down regulation of Retnla mRNA expression at 30 to 100 nM incubated for 24 hrs by qPCR analysis. Format: functional, cell-based. The conditions noted are these: dose 30-100 nM.
In data set [4] the test system is Mus musculus. The data set can be described thus: Toxicity in C57BL/6 mouse allografted with mouse MC38 cells assessed as liver damage at 5 to 20 mg/kg, po administered every day for 2 weeks by histopathological analysis. The data set is classed as organism-based, MC-38. The conditions noted are these: in vivo, 336 h, dose 5-20 mg/kg.
Data set [5] relates to THP-1. The data set can be described thus: Induction of conversion of M2-macrophages to the M1 phenotype in CM of HCT116 cells treated […]-differentiated human THP-1 cells assessed as upregulation of Tnf mRNA expression at 30 to 100 nM incubated for 24 hrs by qPCR analysis. The conditions noted are these: dose 30-100 nM. The data set is classed as functional, cell-based.
The subject of the next data set is HCT-116. The data set can be described thus: Antiproliferative activity against human HCT116 cells cultured with culture medium of M2-macrophages assessed as reduction in cell viability at 10 to 100 nM incubated for 24 hrs by CCK-8 assay. The conditions noted are these: dose 10-100 nM. The data set is classed as functional, cell-based.
Data set [6] deals with THP-1. The data set can be described thus: Induction of conversion of M2-macrophages to the M1 phenotype in CM of HCT116 cells treated […]-differentiated human THP-1 cells assessed as upregulation of Il12 mRNA expression at 30 to 100 nM incubated for 24 hrs by qPCR analysis. The data set is classed as functional, cell-based. The conditions noted are these: dose 30-100 nM.

For data set [7], the system named is BMDM. As to the kind of experiment: Induction of conversion of M2-macrophages to the M1 phenotype in CM of MC38 cells treated C57BL/6 mouse BMDM cells assessed as down regulation of Il10 mRNA expression at 30 to 100 nM preincubated with culture medium of MC38 cells for 24 hrs followed by compound addition and measured after 24 hrs by qPCR analysis. The conditions noted are these: dose 30-100 nM. The data set is classed as functional, cell-based.

In data set [8] the test system is MC-38. As to the kind of experiment: Antitumor activity against mouse MC38 cells allografted in C57BL6 mouse assessed as decrease in Retnla mRNA expression at 10 to 20 mg/kg, po administered daily for 2 weeks by qPCR analysis. Format: functional, organism-based. The conditions noted are these: dose 10-20 mg/kg.
For data set [9], the system named is THP-1. As to the kind of experiment: Induction of conversion of M2-macrophages to the M1 phenotype in CM of HCT116 cells treated […]-differentiated human THP-1 cells assessed as down regulation of Vegf mRNA expression at 30 to 100 nM incubated for 24 hrs by qPCR analysis. The data set is classed as functional, cell-based. The conditions noted are these: dose 30-100 nM.

Data set [10] concerns the target T1, Macrophage colony-stimulating factor 1 receptor (Mus musculus, UniProt P09581).
T1 sequence (P09581 whole entry): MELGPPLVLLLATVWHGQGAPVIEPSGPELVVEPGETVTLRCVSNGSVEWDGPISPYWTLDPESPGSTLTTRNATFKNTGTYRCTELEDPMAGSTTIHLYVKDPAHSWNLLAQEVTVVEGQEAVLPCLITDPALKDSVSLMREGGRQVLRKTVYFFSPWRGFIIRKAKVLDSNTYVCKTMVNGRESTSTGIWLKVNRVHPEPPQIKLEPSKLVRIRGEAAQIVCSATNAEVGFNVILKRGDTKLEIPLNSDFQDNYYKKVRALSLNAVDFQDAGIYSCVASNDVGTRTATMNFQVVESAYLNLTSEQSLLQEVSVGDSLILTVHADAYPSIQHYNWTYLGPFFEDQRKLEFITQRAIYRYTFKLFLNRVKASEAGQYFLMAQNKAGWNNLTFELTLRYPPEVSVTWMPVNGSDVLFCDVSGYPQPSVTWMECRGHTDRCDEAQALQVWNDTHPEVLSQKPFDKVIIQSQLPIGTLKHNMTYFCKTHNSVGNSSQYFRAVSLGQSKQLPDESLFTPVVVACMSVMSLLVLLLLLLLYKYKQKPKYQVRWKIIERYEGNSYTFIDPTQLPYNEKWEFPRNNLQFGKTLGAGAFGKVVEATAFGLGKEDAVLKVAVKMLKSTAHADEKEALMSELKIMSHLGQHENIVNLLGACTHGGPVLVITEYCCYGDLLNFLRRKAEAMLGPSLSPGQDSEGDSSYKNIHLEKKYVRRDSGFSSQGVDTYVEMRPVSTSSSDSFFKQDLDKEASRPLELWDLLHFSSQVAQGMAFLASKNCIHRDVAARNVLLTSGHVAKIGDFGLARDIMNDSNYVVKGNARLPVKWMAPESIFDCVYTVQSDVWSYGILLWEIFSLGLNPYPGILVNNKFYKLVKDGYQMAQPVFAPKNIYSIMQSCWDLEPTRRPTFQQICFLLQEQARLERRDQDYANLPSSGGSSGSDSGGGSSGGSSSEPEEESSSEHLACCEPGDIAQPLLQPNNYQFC
The data set can be described thus: Binding affinity to CSF-1R in C57BL/6 mouse BMDM cells assessed as dissociation constant by SPR assay.

In data set [11] the target is T2, Macrophage colony-stimulating factor 1 receptor (Mus musculus) (UniProt P09581).
T2 sequence (whole entry): T1 sequence (P09581 whole entry)
The data set can be described thus: Inhibition of CSF-1R signaling pathway in C57BL/6 mouse BMDM cells assessed as reduction in M-CSF induced AKT phosphorylation preincubated for 12 hrs followed by M-CSF stimulation for 30 mins by Western blot analysis. The data set is classed as cell-based.

The subject of data set [12] is MC-38. The data set can be described thus: Antitumor activity against mouse MC38 cells allografted in po dosed C57BL6 mouse assessed as inhibition of tumor growth administered daily for 2 weeks by caliper method. The data set is classed as functional, organism-based. The conditions noted are these: dose 5-20 mg/kg.
For data set [13], the system named is Mus musculus. As to the kind of experiment: Toxicity in C57BL/6 mouse allografted with mouse MC38 cells assessed as kidney damage at 5 to 20 mg/kg, po administered every day for 2 weeks by histopathological analysis. The conditions noted are these: in vivo, 336 h, dose 5-20 mg/kg. The data set is classed as organism-based, MC-38.

The source made the active and inactive calls. No cut-off for these calls is given here.

For `Cc1[nH]c(/C=C2\C(=O)Nc3cc(NC(=O)Nc4cc(C(C)(C)C)on4)ccc32)c(C)c1NC(=O)CN1CCN(C)CC1`, the result in the data set on BMDM [1], with MC-38 [2], in the data set on THP-1 [3], with THP-1 [5], in the data set on HCT-116 and with THP-1 [6] was Active. The result in the data set on BMDM [7], in the data set with MC-38 [8] and in the data set on THP-1 [9] was Active. The Activity entry was “Non-Toxic” in the data set on Mus musculus [4], “Dose-dependent effect” in the data set with MC-38 [12] and “Non-Toxic” with Mus musculus [13]. The equilibrium dissociation constant (Kd) in [10] is 3.4 nM. In addition, the inhibition entry in data set [11] was “Dose-dependent effect”.
